Assay results reported in ChEMBL document CHEMBL4020805, “Design, synthesis and SAR of new-di-substituted pyridopyrimidines as ATP-competitive dual PI3Kα/mTOR inhibitors” (Bioorg Med Chem Lett, 2017).
Values after ≈ are worked out from the molar mass of the structure shown.

Columns and labels:
[1] = physchem; conditions: buffer, pH 7.4
[2] = in vitro; conditions: CD-1, mouse, liver microsomes

| SMILES | solubility at 1.5 h, 200 µM [1] | half-life at 1 µM [2] |
| --- | --- | --- |
| O=C(Nc1ccc(-c2nc(N3CCOCC3)c3cccnc3n2)cc1)Nc1cccc(CO)c1 | 21.8 µM (≈ 9.95 µg/mL) | 30 min |
| O=C(Nc1ccc(-c2nc(N3CCOCC3)c3cccnc3n2)cc1)Nc1ccc(S(=O)(=O)Nc2ccccc2)cc1 | < 2 µM | 26.9 min |
| CCOC(=O)c1ccc(NC(=O)Nc2ccc(-c3nc(N4CCOCC4)c4cccnc4n3)cc2)cc1 | < 2 µM | > 60 min |
| O=C(Nc1ccc(-c2nc(N3CCOCC3)c3cccnc3n2)cc1)Nc1ccc(S(=O)(=O)Nc2ccc(F)cc2F)cc1 | < 2 µM | 60 min |
| O=C(Nc1ccc(-c2nc(N3CCOCC3)c3cccnc3n2)cc1)Nc1ccc(S(=O)(=O)Nc2ccc(F)cc2)cc1 | 4.2 µM (≈ 2.52 µg/mL) | 59.6 min |
| O=C(Nc1ccc(-c2nc(N3CCOCC3)c3ncccc3n2)cc1)Nc1ccc(S(=O)(=O)Nc2ccc(F)cc2)cc1 | < 2 µM | > 60 min |
| O=C(Nc1ccc(-c2nc(N3CCOCC3)c3ncccc3n2)cc1)Nc1ccc(S(=O)(=O)Nc2ccc(F)cc2F)cc1 | < 2 µM | > 60 min |
| Oc1cccc(-c2nc(N3CCOCC3)c3oc4ncccc4c3n2)c1 [PI-103] | 3.4 µM (≈ 1.18 µg/mL) | 7.1 min |
| CC(=O)c1ccc(NC(=O)Nc2ccc(-c3nc(N4CCOCC4)c4cccnc4n3)cc2)cc1 | < 2 µM | 59 min |
| O=C(Nc1ccc(C(=O)CCl)cc1)Nc1ccc(-c2nc(N3CCOCC3)c3ncccc3n2)cc1 | < 2 µM | > 60 min |
| CCC(=O)c1ccc(NC(=O)Nc2ccc(-c3nc(N4CCOCC4)c4cccnc4n3)cc2)cc1 | 11.4 µM (≈ 5.5 µg/mL) | > 60 min |
| O=C(Nc1ccc(-c2nc(N3CCOCC3)c3ncccc3n2)cc1)Nc1ccc(S(=O)(=O)Nc2ccccc2)cc1 | < 2 µM | 16.6 min |
| O=C(Nc1ccc(CCO)cc1)Nc1ccc(-c2nc(N3CCOCC3)c3ncccc3n2)cc1 | < 2 µM | > 60 min |
| O=C(Nc1ccccc1)Nc1ccc(-c2nc(N3CCOCC3)c3ncccc3n2)cc1 | < 2 µM | 22.3 min |
